In patent US20090093011A1, “Biosensors for ligand-directed functional selectivity” (priority 2007, published 2009):
Entries after “also recorded” stand apart in the source; their conditions may differ. Where two headings read alike, the source gives them in different places.

Tests used:
[1] = molecular target: T1, β2AR (Homo sapiens, UniProt P07550); assay: Ligand-induced DMR signal, RWG biosensor, quiescent A431 cells; assay type: cell-based; design: A431 cells endogenously express large numbers of the β2AR; endogenous in cells; host or cells: A431 (human epidermoid carcinoma), quiescent; conditions: for type of DMR signal induced by the ligand alone: saturating concentration, quiescent A431 cells; for t1/2: P-DMR event, single phase exponential association fit; for N-DMR (pm): amplitude of N-DMR event; for P-DMR (pm): amplitude of P-DMR event; for t1/2 of the P-DMR event: one-phase exponential association; for transition time (τ in seconds): time for the P-DMR event to occur; for t1/2 of single-phase exponential decay of EC50 with assay time: EC50 as a function of assay time (FIG. 3c); for EC50: DMR response at assay time of 50 min
Protocol: Cell culture—Human epidermoid carcinoma A431 cells (American Type Cell Culture) were grown in Dulbecco's modified Eagle's medium (DMEM) supplemented with 10% fetal bovine serum (FBS), 4.5 g/liter glucose, 2 mM glutamine, and antibiotics. About 1.8×10^4 cells at passage 3 to 8 suspended in 50 μL the DMEM medium containing 10% FBS were placed in each well of a 384-well microplate, and were cultured at 37° C. under air/5% CO2 for about 1 day, followed by about 20 hr starvation through continuously culturing in the serum-free DMEM.
Optical biosensor system and cell assays—A Corning® Epic® wavelength interrogation system with an on-board liquid handling system was used. The system is standalone and consists of a temperature-control unit, an optical detection unit, and an on-board liquid handling unit with robotics. The temperature-control unit minimizes temperature fluctuations, if any. Inside this unit, there are two side-by-side stacks for holding both the sensor microplates and compound source plates. Once stable temperature is reached (typically within 1 hr), a sensor microplate is transferred by the robotics into the plate holder right above the detection system, while a source plate is moved to an appropriate compartment so that it is readily addressable by the on-board liquid handling unit.
The detection unit has integrated fiber optics to measure the wavelength shift of the resonant lights due to ligand-induced dynamic mass redistribution in living cells. A broadband white light source centered on 830 nm, generated through a fiber optic and a collimating lens at nominally normal incidence through the bottom of the microplate, is used to illuminate a small region of the grating surface. A detection fiber for recording the reflected light is bundled with the illumination fiber. A series of illumination/detection heads are arranged in a linear fashion, so that reflection spectra are collected from the 16-wells within the same column of a 384 well microplate at once.
(§1) For kinetic assays, the cells were washed with HBSS (Hanks Balanced Salt Solution with 20 mM HEPES) buffer. After 1 hour incubation within the detection system, the sensor plate was scanned and a baseline response was recorded. Then, compound solutions were transferred into the sensor plate using the on-board liquid handling system, and the cell responses were then recorded for another period of time. The lid of the sensor microplates was on throughout the assay, except of a short period of time (about 1 min.) when the compounds were introduced. The plate lid was handled automatically by the robotics. All studies were carried out at controlled temperature (28° C.).
Statistical analysis—Unless specifically mentioned, three replicates were carried out for each measurement or each compound. The standard deviation was derived from these measurements (n=3). […] All dose-dependent responses were analyzed using non-linear regression method with Prism software (available from Graph Pad).
Ligand-specific DMR signals—β2AR in A431 cells were selected as a model system for assaying ligand-directed functional selectivity, because of well-established signaling pathways of the β2AR in A431 as well as the availability of a rich source of structurally similar ligands having wide spectrum of efficacies. A431 cells endogenously express large numbers of the β2AR (about 34,000 copies per cells). To examine the functional selectivity of β2AR ligands, we used RWG biosensor to follow change in local mass density or distribution as a function of time upon stimulation with a saturating concentration of a ligand. The RWG biosensor detects an integrated response, termed as dynamic mass redistribution (DMR) signal, mediated through ligand-induced activation of the β2AR. The DMR signal approximates a global representation of the receptor activation and signaling, particularly for signaling events associated with dynamic relocation of cellular matters at or near the sensor surface.

[2] = molecular target: T1, β2AR; assay: Catechol co-stimulation of β2AR ligand-induced DMR signals in A431 cells; assay type: cell-based; design: A431 cells endogenously express large numbers of the β2AR; endogenous in cells; host or cells: A431 (human epidermoid carcinoma), quiescent; conditions: catechol of 500 μM; pindolol of 10 nM, epinephrine of 100 nM
Source text: The ability of catechol to modulate the DMR signals induced by other ligands was examined. […] In embodiments the signaling of 600 or 610 can be completely separated, or can partially overlap.

[3] = test system: dynamin; conditions: 2 nM epinephrine after pretreatment with 25 μM DIPC
Source text: Although not bound by theory, a receptor internalization process is believed to result in a loss in local mass density or distribution within the sensing volume of the biosensor, leading to a negative contribution to the overall response. Since dynamin is known to play an important role in the ligand-induced β2AR internalization, we examined the effect of inhibiting dynamin activity on the ligand responses.

[4] = molecular target: T1, β2AR; conditions: βARK- and PKA-mediated phosphorylation; cited from earlier work
[5] = molecular target: T1, β2AR; conditions: dopamine of <100 μM; antagonist 1 μM
Protocol: as §1

[6] = molecular target: T1, β2AR; conditions: binding affinity reference value from literature sources; cited from earlier work

T1 sequence (P07550 whole entry): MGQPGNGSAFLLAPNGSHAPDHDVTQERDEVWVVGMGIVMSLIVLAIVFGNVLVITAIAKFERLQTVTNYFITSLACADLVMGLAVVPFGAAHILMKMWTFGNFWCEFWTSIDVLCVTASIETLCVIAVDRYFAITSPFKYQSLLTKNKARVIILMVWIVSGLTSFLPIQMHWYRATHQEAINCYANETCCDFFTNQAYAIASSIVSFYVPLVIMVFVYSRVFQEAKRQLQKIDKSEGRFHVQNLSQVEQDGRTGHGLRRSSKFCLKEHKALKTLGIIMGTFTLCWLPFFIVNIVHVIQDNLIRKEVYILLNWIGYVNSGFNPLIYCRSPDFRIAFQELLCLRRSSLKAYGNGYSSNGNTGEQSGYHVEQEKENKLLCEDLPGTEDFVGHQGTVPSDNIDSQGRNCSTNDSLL

Row | t1/2 [1] | N-DMR (pm) [1] | P-DMR (pm) [1] | t1/2 of the P-DMR event [1] | transition time (τ in seconds) [1] | SMILES | type of DMR signal induced by the ligand alone [1] | maximal amplitude of the P-DMR event, normalized to the epinephrine response ([1]; n=16) | other results
1 | – | – | – | – | – | NCCc1ccc(O)cc1 [tyramine] | complicated DMR signal | – | –
2 | 480 ± 23 s | 31 ± 4 pm | 214 ± 32 pm | about 480 s | 252 ± 15 s | NCCc1ccc(O)c(O)c1 [dopamine] | biphasic response | – | –
3 | – | – | – | – | – | NCCc1ccccc1 [phenylethylamine] | complicated DMR signal | – | –
4 | 974 ± 150 s | 0 ± 5 pm | 75 ± 18 pm | about 974 s | 260 ± 26 s | O=C(NCCNCC(O)COc1ccc(O)cc1)N1CCOCC1 (centres unmarked) [xamoterol] | initial steady phase (termed as net-zero DMR) with a short duration, and a succeeding P-DMR | – | –
5 | – | – | – | – | – | O=C(CCCN1CCC2(CC1)C(=O)NCN2c1ccccc1)c1ccc(F)cc1 [spiperone] | – | – | inhibition of the dopamine response [5]: neither 1 μM SCH 23390 nor 1 μM spiperone
6 | 289 ± 42 s | 0 ± 3 pm | 152 ± 13 pm | about 289 s | 130 ± 15 s | Oc1ccccc1O [catechol] | initial steady phase (termed as net-zero DMR) with a short duration, and a succeeding P-DMR | 66% | −logKi (ref.) [6]: 3.80(3); transition time (τ) [1]: about 140 sec; EC50 [1]: 501 µM
7 | 559 ± 15 s | 29 ± 5 pm | 209 ± 16 pm | – | 180 ± 17 s | NC[C@H](O)c1ccc(O)c(O)c1 [norepinephrine] | biphasic response | 91% | t1/2 of single-phase exponential decay of EC50 with assay time [1]: about 248 sec
8 | – | – | – | – | – | CNCC(O)c1ccccc1 (centres unmarked) [halostachine] | – | – | −logKi (ref.) [6]: 5.08(3); maximal amplitude of the P-DMR event, normalized to the epinephrine response [1]: 90%; EC50 [1]: 23.4 µM

Row | SMILES | t1/2 [1] | N-DMR (pm) [1] | P-DMR (pm) [1] | t1/2 of the P-DMR event [1] | transition time (τ in seconds) [1] | type of DMR signal induced by the ligand alone [1] | maximal amplitude of the P-DMR event, normalized to the epinephrine response ([1]; n=16) | other results
9 | CC(C)NCC(O)COc1cccc2[nH]ccc12 (centres unmarked) [pindolol] | 516 ± 47 s | 0 ± 4 pm | 142 ± 19 pm | – | 250 ± 15 s | initial steady phase (termed as net-zero DMR) with a short duration, and a succeeding P-DMR | 61% | DMR signal on co-stimulation with catechol compared with individual signals [2]: closely resembled, but was not identical to, the sum of the two DMR signals; also recorded: close to the sum of the two DMR signals obtained individually
10 | CNC[C@H](O)c1ccc(O)c(O)c1 [epinephrine] | 521 ± 25 s | 37 ± 7 pm | 232 ± 12 pm | – | 132 ± 20 s | biphasic response | 100% | t1/2 for the P-DMR event [3]: about 200 seconds; transition time (τ) [3]: about 120 sec; kobs of receptor phosphorylation [4]: about 20 sec; transition time (τ) [1]: about 140 sec; t1/2 of single-phase exponential decay of EC50 with assay time [1]: about 203 sec; duration of initial N-DMR ([1]; epinephrine response, FIG. 1): about 130 sec; duration of subsequent P-DMR ([1]; epinephrine response, FIG. 1): > 10 min; DMR signal on co-stimulation with catechol compared with individual signals [2]: almost identical to that induced by 100 nM epinephrine alone
